From PubChem BioAssay AID328 (DTP/NCI, 2004) come the findings set out here.

Several values for one entry are separate records, joined by “and”; a condition that tells them apart may be missing. Equal values may be shown once. Inconclusive results and toxic doses are left out.

The test system of the test is BDF1 mice, P388 leukemia ip, median survival T/C. As to the kind of experiment: NCI In Vivo Anticancer Drug Screen. Data for tumor model P388 Leukemia (intraperitoneal) in B6D2F1 (BDF1) mice. The conditions noted are these: endpoint: median survival time, higher = longer survival. In short, it runs like this:
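Each value expresses how treatment altered survival: treated-mouse outcome over vehicle-mouse outcome, both groups bearing the transplanted tumour.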

Setting [1] is: dose: 100.0 mg/kg/injection, schedule: Q04DX003 (ip), vehicle: saline with Tween-80.
Where [2] appears, read: dose: 100.0 mg/kg/injection, schedule: Q04DX003 (ip), vehicle: saline.
Where [3] appears, read: dose: 200.0 mg/kg/injection, schedule: Q04DX003 (ip), vehicle: saline.
[4] abbreviates: dose: 25.0 mg/kg/injection, schedule: Q01DX009 (ip), vehicle: Klucel (hydroxypropylcellulose) (HPC).
Setting [5] is: dose: 50.0 mg/kg/injection, schedule: Q01DX009 (ip), vehicle: Klucel (hydroxypropylcellulose) (HPC).
Where [6] appears, read: dose: 75.0 mg/kg/injection, schedule: Q01DX009 (ip), vehicle: Klucel (hydroxypropylcellulose) (HPC).
The mark [7] stands for this setting: dose: 100.0 mg/kg/injection, schedule: Q01DX009 (ip), vehicle: Klucel (hydroxypropylcellulose) (HPC).
The mark [8] stands for this setting: dose: 200.0 mg/kg/injection, schedule: Q01DX009 (ip), vehicle: Klucel (hydroxypropylcellulose) (HPC).
[9] abbreviates: dose: 50.0 mg/kg/injection, schedule: Q04DX003 (ip), vehicle: Klucel (hydroxypropylcellulose) (HPC).
Setting [10] is: dose: 100.0 mg/kg/injection, schedule: Q04DX003 (ip), vehicle: Klucel (hydroxypropylcellulose) (HPC).
Where [11] appears, read: dose: 50.0 mg/kg/injection, schedule: Q01DX009 (ip), vehicle: saline with Tween-80.
The mark [12] stands for this setting: dose: 100.0 mg/kg/injection, schedule: Q01DX009 (ip), vehicle: saline with Tween-80.
Where [13] appears, read: dose: 200.0 mg/kg/injection, schedule: Q01DX009 (ip), vehicle: saline with Tween-80.
Where [14] appears, read: dose: 200.0 mg/kg/injection, schedule: Q04DX003 (ip), vehicle: saline with Tween-80.
Setting [15] is: dose: 400.0 mg/kg/injection, schedule: Q04DX003 (ip), vehicle: saline with Tween-80.
[16] abbreviates: dose: 25.0 mg/kg/injection, schedule: Q01DX009 (ip), vehicle: saline with Tween-80.

As for `CC(C)(C)c1ccc(C(=O)C2CC2)cc1`, the T/C (dose: 25.0 mg/kg/injection, schedule: Q04DX003 (ip), vehicle: saline with Tween-80) is 90 % of control; the T/C (dose: 50.0 mg/kg/injection, schedule: Q04DX003 (ip), vehicle: saline with Tween-80) is 95 % of control; the T/C under setting [1] was 86 % of control.
Consider `Cc1ccc(OC(=O)Nc2ccc(C(=O)O)c(O)c2)cc1`, for which the T/C by setting is: (dose: 50.0 mg/kg/injection, schedule: Q01DX009 (ip), vehicle: saline) 118 % of control; (dose: 100.0 mg/kg/injection, schedule: Q01DX009 (ip), vehicle: saline) 109 % of control; under setting [2], 100 % of control; under setting [3], 113 % of control.
As for `O=S(=O)(OCC#CCOS(=O)(=O)c1ccc(Cl)c(Cl)c1)c1ccc(Cl)c(Cl)c1`, the T/C by setting is: (dose: 12.5 mg/kg/injection, schedule: Q01DX009 (ip), vehicle: Klucel (hydroxypropylcellulose) (HPC)) 99 % of control; under setting [4], 112 % of control; (dose: 35.0 mg/kg/injection, schedule: Q01DX009 (ip), vehicle: Klucel (hydroxypropylcellulose) (HPC)) 93 % of control; under setting [5], 87 % of control; under setting [6], 101 % of control.
In the case of `COc1cccc(NC(=O)N2CCCCC2)c1`, the T/C under setting [4] was 111 % of control, the T/C under setting [5] is 111 % of control, the T/C under setting [7] was 114 % of control and the T/C under setting [8] was 114 % of control.
On to `c1ccc(C2OC2c2ccccc2)cc1` (stereo not given), for which the T/C is 89 % of control under setting [9]; 90 % of control under setting [6]; 89 % of control under setting [10]; 104 % of control (dose: 150.0 mg/kg/injection, schedule: Q01DX009 (ip), vehicle: Klucel (hydroxypropylcellulose) (HPC)); 104 % of control (dose: 300.0 mg/kg/injection, schedule: Q01DX009 (ip), vehicle: Klucel (hydroxypropylcellulose) (HPC)).
On to `CNC(=S)N/N=C/C(=O)c1ccco1`, for which the T/C is 104 % of control (dose: 22.5 mg/kg/injection, schedule: Q01DX009 (ip), vehicle: saline with Tween-80); 98 % of control (dose: 45.0 mg/kg/injection, schedule: Q01DX009 (ip), vehicle: saline with Tween-80); 105 % of control (dose: 90.0 mg/kg/injection, schedule: Q01DX009 (ip), vehicle: saline with Tween-80).
For the compound `Cc1c(Cl)cnc(N)c1Cl` (tested in a mixture with another compound), the T/C by setting is: under setting [11], 96 % of control; under setting [12], 156 % of control; under setting [13], 105 % of control.
As to `C[C@H]1C[C@@H]2[C@H]([C@@H](O)C[C@@]3(C)[C@H]2CC[C@]3(O)C(=O)CO)[C@@]2(C)C=CC(=O)C=C12`, the T/C is 104 % of control under setting [13] and 90 % of control (dose: 400.0 mg/kg/injection, schedule: Q01DX009 (ip), vehicle: saline with Tween-80).
`O=C(O)CC(SC(c1ccccc1)(c1ccccc1)c1ccccc1)C(=O)O` (stereo not given): the T/C was 86 % of control under setting [9]; 86 % of control under setting [10]; 95 % of control (dose: 200.0 mg/kg/injection, schedule: Q04DX003 (ip), vehicle: Klucel (hydroxypropylcellulose) (HPC)).
`COc1cccc(CCNC(=O)CC#N)c1OC`: the T/C is, setting by setting: under setting [11], 105 % of control; under setting [12], 105 % of control; under setting [1], 100 % of control; under setting [13], 95 % of control; under setting [14], 100 % of control; under setting [15], 100 % of control.
Turning to `COC(=O)CCc1c[nH]c2ccc(N(CCCl)CCCl)cc12`, the T/C (dose: 0.03 mg/kg/injection, schedule: Q04DX003 (ip), vehicle: saline with Tween-80) was 105 % of control; the T/C (dose: 0.04 mg/kg/injection, schedule: Q01DX009 (ip), vehicle: saline with Tween-80) was 122 % of control; the T/C (dose: 0.1 mg/kg/injection, schedule: Q01DX009 (ip), vehicle: saline with Tween-80) was 154 % of control and 163 % of control; the T/C (dose: 0.16 mg/kg/injection, schedule: Q04DX003 (ip), vehicle: saline with Tween-80) was 113 % of control; the T/C (dose: 0.2 mg/kg/injection, schedule: Q01DX009 (ip), vehicle: saline with Tween-80) was 172 % of control; the T/C (dose: 0.25 mg/kg/injection, schedule: Q04DX003 (ip), vehicle: saline with Tween-80) is 166 % of control. In addition, the T/C by setting is: (dose: 0.3 mg/kg/injection, schedule: Q01DX009 (ip), vehicle: saline with Tween-80) 155 % of control and 181 % of control; (dose: 0.5 mg/kg/injection, schedule: Q04DX003 (ip), vehicle: saline with Tween-80) 170 % of control; (dose: 0.63 mg/kg/injection, schedule: Q04DX003 (ip), vehicle: saline with Tween-80) 113 % of control; (dose: 0.8 mg/kg/injection, schedule: Q01DX009 (ip), vehicle: saline with Tween-80) 166 % of control; (dose: 1.0 mg/kg/injection, schedule: Q04DX003 (ip), vehicle: saline with Tween-80) 241 % of control; (dose: 1.25 mg/kg/injection, schedule: Q01DX009 (ip), vehicle: saline with Tween-80) 196 % of control and 212 % of control. In addition, the T/C is 205 % of control (dose: 1.3 mg/kg/injection, schedule: Q04DX003 (ip), vehicle: saline with Tween-80); 265 % of control and 217 % of control (dose: 2.0 mg/kg/injection, schedule: Q04DX003 (ip), vehicle: saline with Tween-80); 250 % of control (dose: 2.5 mg/kg/injection, schedule: Q01DX009 (ip), vehicle: saline with Tween-80); 260 % of control and 290 % of control (dose: 3.0 mg/kg/injection, schedule: Q04DX003 (ip), vehicle: saline with Tween-80); 280 % of control and 300 % of control (dose: 4.4 mg/kg/injection, schedule: Q04DX003 (ip), vehicle: saline with Tween-80); 260 % of control (dose: 4.5 mg/kg/injection, schedule: Q04DX003 (ip), vehicle: saline with Tween-80). Also, the T/C by setting is: (dose: 6.7 mg/kg/injection, schedule: Q04DX003 (ip), vehicle: saline with Tween-80) 300 % of control; (dose: 6.75 mg/kg/injection, schedule: Q04DX003 (ip), vehicle: saline with Tween-80) 260 % of control; (dose: 10.0 mg/kg/injection, schedule: Q04DX003 (ip), vehicle: saline with Tween-80) 200 % of control; (dose: 15.0 mg/kg/injection, schedule: Q04DX003 (ip), vehicle: saline with Tween-80) 120 % of control; (dose: 40.0 mg/kg/injection, schedule: Q04DX003 (ip), vehicle: saline with Tween-80) 272 % of control.
In the case of `C=CCCCCCCCCC(=O)NCCCN1CCOCC1`, the T/C by setting is: under setting [16], 100 % of control; under setting [11], 109 % of control; under setting [12], 100 % of control.
Regarding `COC(=O)[C@@H]1[C@H](O)[C@H](C)[C@H](O)[C@@](C)(O)/C=C\C=C(C)C(=O)Nc2c(C)c(OC(C)=O)c3c(c2O)C(=O)C(C)=C2OCOC(=C23)C(C)=C[C@@](C)(O)[C@H](O)[C@@H](C)[C@H]1OC(C)=O`, the T/C is 93 % of control and 105 % of control under setting [7]; 120 % of control and 108 % of control under setting [8]; 121 % of control and 113 % of control (dose: 400.0 mg/kg/injection, schedule: Q01DX009 (ip), vehicle: Klucel (hydroxypropylcellulose) (HPC)); 90 % of control (dose: 400.0 mg/kg/injection, schedule: Q01DX009 (ip), vehicle: saline).
On to `O=C(Nc1cccc(Cl)c1)NN(c1ccccc1)C1CCS(=O)(=O)C1` (stereo not given), for which the T/C is 99 % of control under setting [11], 98 % of control under setting [12] and 100 % of control under setting [13].
Turning to `Cn1cnc([N+](=O)[O-])c1Cl`, the T/C by setting is: under setting [16], 101 % of control; (dose: 50.0 mg/kg/injection, schedule: Q01DX005 (ip), vehicle: saline) 95 % of control; under setting [11], 92 % of control; (dose: 100.0 mg/kg/injection, schedule: Q01DX005 (ip), vehicle: saline) 104 % of control; under setting [12], 106 % of control; under setting [2], 100 % of control. Further, the T/C is 101 % of control under setting [13] and 105 % of control under setting [3].
As for `O=C(O)c1ccc(-c2ccc(C(=O)O)cc2I)c(I)c1`, the T/C runs as follows: under setting [11], 100 % of control; under setting [12], 96 % of control; under setting [1], 100 % of control; under setting [13], 96 % of control; under setting [14], 100 % of control; under setting [15], 95 % of control.
